Assay [1] concerns HepG2 viability, ATP luminescence (CellTiter-Glo), 72 h. Nature of the assay: HepG2 cell cytotoxicity, dose response, cytotoxicity control, plate reader, dry powder, set 11 (AID 743440).
Test in assay [2]: as above
Conditions: HepG2 viability, ATP luminescence (CellTiter-Glo), 72 h.

By AC50 is commonly meant the midpoint of the concentration-response curve, whichever way the signal moves.

Structures are written as SMILES. Calls of active or inactive are those of the source.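 How the source made its calls: active means AC50 for cell killing below 10 µM, with the signal falling as expected; inactive means the rest, including compounds acting in the opposite direction.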

Take `O=C(CSc1c2c(nc3ccc(Cl)cc13)CCCC2)NC1CCN(Cc2ccccc2)CC1`: in assay [1], the concentration at half-maximal activity (AC50) is 26.3 µM.

With `COc1cc(CNCCCN2CCOCC2)ccc1OCC(=O)Nc1cccc(C(F)(F)F)c1`, the AC50 in assay [1] was > 24 µM (inactive).

In the case of `Cc1ccc(NC(=O)COc2ccccc2C(=O)NCCN(C)C)cc1`, the activity change, negative = cytotoxicity in assay [2] (at 26 µM (top of the series)) was -14.7% (inactive).

With `O=C(CSc1c2c(nc3ccc(Cl)cc13)CCCC2)NC1CC1`, the AC50 in assay [1] is > 52 µM (inactive).

On to `CCOc1ccc(NC(=O)COc2ccc(C(=O)N3CCC(C(N)=O)CC3)cc2OC)cc1`, for which, in assay [2] (at 26 µM (top of the series)), the activity change, negative = cytotoxicity is -12.6% (inactive).

For `O=C(CSc1cccc2cccnc12)NCc1ccco1`, in assay [2] (at 26 µM (top of the series)), the activity change, negative = cytotoxicity is 9.13% (inactive).

On to `Cn1cc(SCC(=O)NCc2ccco2)c2ccccc21`, for which, in assay [2] (at 26 µM (top of the series)), the activity change, negative = cytotoxicity is -5.75% (inactive).

Take `COc1cc(C(=O)NCCCN(C)C)ccc1OCC(=O)Nc1cccc(C(F)(F)F)c1`: the AC50 in assay [1] is > 52 µM (inactive).

For the compound `CN(C(=O)COc1ccccc1C(=O)NCCc1ccccc1)c1ccccc1`, the AC50 in assay [1] was > 52 µM (inactive).

Consider `CN(CCNC(=O)CSc1c2c(nc3ccc(Cl)cc13)CCCC2)Cc1ccccc1`, for which the AC50 in assay [1] was > 52 µM (inactive).

Regarding `CCOC(=O)C1CCN(C(=O)c2ccc(OCC(=O)N3CCOCC3)c(OC)c2)CC1`, the activity change, negative = cytotoxicity in assay [2] (at 26 µM (top of the series)) was -12.3% (inactive).

Regarding `Cc1ccc(CNC(=O)CSc2c3c(nc4ccc(Cl)cc24)CCCC3)o1`, the AC50 in assay [1] was > 52 µM (inactive).

Take `O=C(CSc1c2c(nc3ccc(Cl)cc13)CCCC2)NCc1cccs1`: the activity change, negative = cytotoxicity in assay [2] (at 12 µM (top of the series)) was -11.9% (inactive).

Turning to `O=C(CSc1ccc2ccccc2n1)NCc1ccco1`, the activity change, negative = cytotoxicity in assay [2] (at 26 µM (top of the series)) was -2.89% (inactive).

On to `O=C(COc1ccc(C(=O)NCC2CCCO2)cc1)Nc1cccc(C(F)(F)F)c1` (configuration not stated), for which the activity change, negative = cytotoxicity in assay [2] (at 26 µM (top of the series)) was -9.73% (inactive).

As to `CN(C(=O)COc1ccc(Cl)cc1C(N)=O)c1ccccc1`, in assay [2] (at 26 µM (top of the series)), the activity change, negative = cytotoxicity is 6.24% (inactive).

`CN(CCOc1ccccc1)C(=O)c1ccc(OCC(=O)Nc2cccc(C(F)(F)F)c2)cc1`: the activity change, negative = cytotoxicity in assay [2] (at 26 µM (top of the series)) was -1.92% (inactive).

In the case of `O=C(CSc1c2c(nc3ccc(Cl)cc13)CCCC2)N1CCN(Cc2ccccc2)CC1`, the AC50 in assay [1] is > 52 µM (inactive).

For the compound `O=C(CSc1c2c(nc3ccc(Cl)cc13)CCCC2)Nc1ccc(Cl)cc1`, in assay [1], the AC50 was > 52 µM (inactive).

For the compound `O=C(CSc1c2c(nc3cc(Cl)ccc13)CCCC2)N(Cc1ccco1)C1CCCC1`, in assay [1], the AC50 is > 52 µM (inactive).

As for `O=C(O)CSc1c2c(nc3cc(C(=O)NCc4cccs4)ccc13)CCCC2`, the activity change, negative = cytotoxicity in assay [2] (at 26 µM (top of the series)) was -3.5% (inactive).

In the case of `COc1ccc(N(Cc2cccs2)C(=O)COc2ccccc2C(=O)Nc2ccccc2)cc1`, the activity change, negative = cytotoxicity in assay [2] (at 26 µM (top of the series)) is -1.88% (inactive).

With `CCCCOc1ccc(NC(=O)COc2ccccc2C(=O)NCCOc2ccccc2)cc1`, the AC50 in assay [1] is > 52 µM (inactive).

As to `Cn1c(=O)cc(SCC(=O)NCc2ccco2)c2ccccc21`, the activity change, negative = cytotoxicity in assay [2] (at 26 µM (top of the series)) was 2.16% (inactive).

As for `O=C(CSc1c2c(nc3ccc(Cl)cc13)CCCC2)NCc1ccc2c(c1)OCO2`, the AC50 in assay [1] is > 52 µM (inactive).

On to `CCCNC(=O)CSc1c2c(nc3ccc(Cl)cc13)CCCC2`, for which the AC50 in assay [1] is > 52 µM (inactive).

As to `Cc1cccc(NC(=O)CSc2c3c(nc4ccc(Cl)cc24)CCCC3)n1`, in assay [1], the AC50 was 26.2 µM.

Turning to `NC(=O)C1CCN(C(=O)c2ccc(OCC(=O)Nc3cccc(C(F)(F)F)c3)cc2)CC1`, the activity change, negative = cytotoxicity in assay [2] (at 26 µM (top of the series)) is -3.5% (inactive).

For the compound `COc1ccc(OCCNC(=O)c2ccccc2OCC(=O)Nc2ccc(NC(C)=O)cc2)cc1`, the activity change, negative = cytotoxicity in assay [2] (at 26 µM (top of the series)) was -7.48% (inactive).

As to `CC(Sc1c2c(nc3ccc(Cl)cc13)CCCC2)C(=O)NCc1ccco1` (configuration not stated), in assay [1], the AC50 is > 52 µM (inactive).

For `COc1ccc(CNC(=O)CSc2c3c(nc4ccc(Cl)cc24)CCCC3)cc1`, in assay [1], the AC50 was > 52 µM (inactive).

As for `O=C(COc1ccc(C(=O)N2CCC2)cc1)Nc1cccc(C(F)(F)F)c1`, the activity change, negative = cytotoxicity in assay [2] (at 26 µM (top of the series)) was -3.29% (inactive).

With `CN(C)c1ccc(NC(=O)COc2ccccc2C(=O)N2CCOCC2)cc1`, in assay [2] (at 26 µM (top of the series)), the activity change, negative = cytotoxicity was 8.33% (inactive).

Regarding `CCN1CCCC1CNC(=O)CSc1c2c(nc3ccc(Cl)cc13)CCCC2` (configuration not stated), in assay [1], the AC50 is 16.1 µM.

As for `O=C(CSc1c2c(nc3ccc(Cl)cc13)CCCC2)N1CCOCC1`, in assay [1], the AC50 was > 52 µM (inactive).

Take `O=C(CSc1c2c(nc3ccc(Cl)cc13)CCCC2)N1CCCCC1`: the activity change, negative = cytotoxicity in assay [2] (at 26 µM (top of the series)) was -19.8% (inactive).

`O=C(COc1ccc(C(=O)N2CCN(C(=O)C3CC3)CC2)cc1)Nc1cccc(C(F)(F)F)c1`: the activity change, negative = cytotoxicity in assay [2] (at 26 µM (top of the series)) is -22.9% (inactive).

As for `O=C(CSc1c2c(nc3ccc(Cl)cc13)CCCC2)N1CCNC1=O`, in assay [2] (at 26 µM (top of the series)), the activity change, negative = cytotoxicity is -15.2% (inactive).

As to `O=C(CSc1c2c(nc3ccccc13)CCCC2)NCc1ccco1`, the AC50 in assay [1] is > 52 µM (inactive).

As for `COCCNC(=O)CSc1c2c(nc3ccc(Cl)cc13)CCCC2`, the AC50 in assay [1] was > 52 µM (inactive).

Take `CCN(CC)CCCNC(=O)c1ccc(OCC(=O)Nc2ccccc2C(F)(F)F)c(OC)c1`: the AC50 in assay [1] is > 52 µM (inactive).

Regarding `CN(C(=O)COc1ccccc1C(=O)Nc1ccccc1)c1ccccc1`, in assay [2] (at 26 µM (top of the series)), the activity change, negative = cytotoxicity was -11.2% (inactive).

In the case of `O=C(COc1ccccc1C(=O)NCCOc1ccc(Cl)cc1)Nc1cccc(Cl)c1`, the AC50 in assay [1] was > 52 µM (inactive).

For the compound `CN(C(=O)COc1ccccc1C(N)=O)c1ccccc1`, the activity change, negative = cytotoxicity in assay [2] (at 26 µM (top of the series)) is 2.01% (inactive).

For `CCN(CC)C(=O)CSc1c2c(nc3ccc(Cl)cc13)CCCC2`, the activity change, negative = cytotoxicity in assay [2] (at 26 µM (top of the series)) was -8.05% (inactive).

In the case of `CCOC(=O)C1CCN(C(=O)c2ccc(OCC(=O)Nc3ccc(OCC)cc3)c(OC)c2)CC1`, in assay [2] (at 26 µM (top of the series)), the activity change, negative = cytotoxicity is -2.93% (inactive).

`CC1(C)CC(NC(=O)c2ccc(OCC(=O)Nc3cccc(C(F)(F)F)c3)cc2)CC(C)(C)N1`: in assay [1], the AC50 is > 52 µM (inactive).

As for `O=C(COc1ccccc1C(=O)NCc1ccccc1)Nc1ccccc1`, in assay [2] (at 26 µM (top of the series)), the activity change, negative = cytotoxicity was -9.2% (inactive).

In the case of `Cc1ccc2nc(Cl)cc(SCC(=O)NCc3ccco3)c2c1`, the activity change, negative = cytotoxicity in assay [2] (at 26 µM (top of the series)) was -16.7% (inactive).

In the case of `Cc1ccc(CNC(=O)CSc2c3c(nc4ccc(Cl)cc24)CCCC3)cc1`, in assay [1], the AC50 is > 52 µM (inactive).

As for `COC(=O)CCCN(C)C(=O)c1ccc(OCC(=O)Nc2cccc(OC)c2)cc1`, the activity change, negative = cytotoxicity in assay [2] (at 26 µM (top of the series)) is -8.54% (inactive).

As to `O=C(COc1ccc(C(=O)NC2CCCCC2)cc1)Nc1cccc(C(F)(F)F)c1`, in assay [1], the AC50 was > 52 µM (inactive).

These data come from PubChem BioAssay AID743440 (Broad Institute, 2014).
